From ChEMBL document CHEMBL3727348, “3-(aryl or heteroaryl) methyleneindolin-2-one derivatives as inhibitors of cancer stem cell pathway kinases for the treatment of cancer” (2014)

Columns and labels:
FaDu [1] = assay: Cytotoxic activity against human FADU bulk cells incubated for 72 hrs by Cell-titer-Glo luminescence assay; assay type: functional, cell-based
A549 [2] = assay: Cytotoxic activity against human A549 bulk cells incubated for 72 hrs by Cell-titer-Glo luminescence assay; assay type: functional, cell-based; settings: A549, 72 h
ACHN [3] = assay: Cytotoxic activity against human ACHN bulk cells incubated for 72 hrs by Cell-titer-Glo luminescence assay; assay type: functional, cell-based
FaDu [4] = assay: Cytotoxic activity against human FADU cancer stem cells incubated for 72 hrs by Cell-titer-Glo luminescence assay; assay type: functional, cell-based
A549 [5] = assay: Cytotoxic activity against human A549 cancer stem cells incubated for 72 hrs by Cell-titer-Glo luminescence assay; assay type: functional, cell-based; settings: A549, 72 h
ACHN [6] = assay: Cytotoxic activity against human ACHN cancer stem cells incubated for 72 hrs by Cell-titer-Glo luminescence assay; assay type: functional, cell-based
[7] = biological target: AMP-activated protein kinase, AMPK (Homo sapiens) (UniProt P54646+O43741+P54619+Q9UGJ0+Q9Y478+Q13131+Q9UGI9); assay: Inhibition of AMPK in human HeLa cells assessed as kinase phosphorylation level at 5 uM incubated for 6 hrs by SDS-PAGE based chemiluminescence assay; assay type: cell-based; parameters: scale not given: the % may be the effect or the level left
[8] = biological target: T1, Ribosomal protein S6 kinase (Homo sapiens) (UniProt P51812+Q9UBS0+O75676+Q15349+O75582+P23443+Q9UK32+Q15418); assay: Inhibition of RPS6 kinase in human HeLa cells assessed as p-RPS6 Ser235/236 phosphorylation level at 5 uM incubated for 6 hrs by SDS-PAGE based chemiluminescence assay; assay type: cell-based; parameters: scale not given: the % may be the effect or the level left
[9] = biological target: T1, Ribosomal protein S6 kinase (Homo sapiens); assay: Inhibition of RPS6 kinase in human HeLa cells assessed as p-RPS6 Ser240/244 phosphorylation level at 5 uM incubated for 6 hrs by SDS-PAGE based chemiluminescence assay; assay type: cell-based; parameters: scale not given: the % may be the effect or the level left

Compound | IC50 (FaDu [1]) | IC50 (A549 [2]) | IC50 (ACHN [3]) | IC50 (FaDu [4]) | IC50 (A549 [5]) | IC50 (ACHN [6]) | Activity [7] | Activity [8] | Activity [9]
CCN(CC)CCNC(=O)c1c(C)[nH]c(/C=C2\C(=O)Nc3c2cccc3-c2cccnc2OC)c1C | 3.81 µM | 5.32 µM | 3.64 µM | 1.92 µM | 6.87 µM | 2.71 µM | 31% | 48% | 54%
CCN(CC)CCNC(=O)c1c(C)[nH]c(/C=C2\C(=O)Nc3c2cccc3-c2cncc(C)c2)c1C | 6.23 µM | 3.36 µM | 1.68 µM | 2.2 µM | 2.23 µM | 1.97 µM | 50% | 47% | 59%
CCN(CC)CCNC(=O)c1c(C)[nH]c(/C=C2\C(=O)Nc3c2cccc3-c2ccc3cc[nH]c3c2)c1C | 2.77 µM | 2.91 µM | 3 µM | 2.06 µM | 3.9 µM | 1.86 µM | 39% | 29% | 44%
COc1ncccc1-c1cccc2c1/C(=C/c1[nH]c(C)cc1C)C(=O)N2 | 22.6 µM | – | – | – | – | – | 105% | 67% | 67%
Cc1[nH]c(/C=C2\C(=O)Nc3cccc(-c4ccc(-c5ccccc5)cc4)c32)c(C)c1C(=O)N1CCN(C)CC1 | 7.56 µM | 21.5 µM | 14.9 µM | 1.21 µM | 5.76 µM | – | 105% | 2% | 36%
Cc1cc(C)c(/C=C2\C(=O)Nc3c2cccc3-c2ccncc2)[nH]1 | – | 23.5 µM | – | – | – | – | 83% | 68% | 65%
CCN(CC)CCNC(=O)c1c(C)[nH]c(/C=C2\C(=O)Nc3c2cccc3-c2cncnc2)c1C | 36.3 µM | 21.5 µM | 16.4 µM | 6.73 µM | 27.5 µM | 10.9 µM | 60% | 71% | 72%
Cc1cc(C)c(/C=C2\C(=O)Nc3cccc(-c4ccc5cc[nH]c5c4)c32)[nH]1 | 16.4 µM | 16.6 µM | 20.4 µM | – | 20.2 µM | 18.9 µM | 27% | 36% | 35%
CCN(CC)CCNC(=O)c1c(C)[nH]c(/C=C2\C(=O)Nc3ccc(-c4cccnc4)cc32)c1C | 2.82 µM | 0.84 µM | 1.31 µM | 4.31 µM | 3.9 µM | 1.06 µM | 8% | 1% | 31%
CCN(CC)CCNC(=O)c1c(C)[nH]c(/C=C2\C(=O)Nc3ccc(-c4csc(-c5ccccc5)n4)nc32)c1C | 1.37 µM | 1.74 µM | 1.37 µM | 0.11 µM | 0.62 µM | 0.97 µM | 35% | 5% | 42%
COC(=O)c1c(C)[nH]c(/C=C2\C(=O)Nc3ccc(-c4csc(C5CCNCC5)n4)cc32)c1C | 0.69 µM | 0.7 µM | 0.52 µM | 0.22 µM | 2.48 µM | – | 79% | 70% | 83%
Cc1[nH]c(/C=C2\C(=O)Nc3cc(-c4csc(-c5ccccc5)n4)ccc32)c(C)c1C(=O)N1CCOCC1 | – | – | – | 41.9 µM | – | – | 118% | 4% | 44%
Cc1[nH]c(/C=C2\C(=O)Nc3cc(-c4csc(-c5ccccc5)n4)ccc32)c(C)c1C(=O)N1CCN(C)CC1 | 4.74 µM | 26.3 µM | 11.6 µM | 1.03 µM | 1.22 µM | 0.39 µM | 150% | 33% | 73%
Cc1cc(C)c(/C=C2\C(=O)Nc3ccc(-c4csc(C5CCNCC5)n4)cc32)[nH]1 | 1.62 µM | 1.29 µM | 1.56 µM | 0.43 µM | 0.88 µM | 0.09 µM | 47% | 76% | 76%
CCN(CC)CCNC(=O)c1c(C)[nH]c(/C=C2\C(=O)Nc3c2cccc3-c2ccncc2)c1C | 6.74 µM | 6.85 µM | 6.39 µM | 4.41 µM | 12.6 µM | 4.99 µM | 56% | 60% | 65%
Cc1cc(C)c(/C=C2\C(=O)Nc3c2cccc3-c2cncc3ccccc23)[nH]1 | 25.8 µM | 19.7 µM | 21 µM | – | – | – | 108% | 86% | 83%
CCN(CC)CCNC(=O)c1c(C)[nH]c(/C=C2\C(=O)Nc3ccc(-c4ccc(-c5ccccc5)cn4)cc32)c1C | 2.72 µM | 2.02 µM | 5.38 µM | 4.81 µM | 3.79 µM | 0.65 µM | 118% | 61% | 82%

Compound | IC50 (FaDu [1]) | IC50 (A549 [2]) | IC50 (ACHN [3]) | IC50 (FaDu [4]) | IC50 (A549 [5]) | IC50 (ACHN [6]) | Activity [7] | Activity [8] | Activity [9]
COc1ccc(-c2cccc3c2NC(=O)/C3=C\c2[nH]c(C)cc2C)cn1 | 28.4 µM | 24.4 µM | 28.3 µM | – | 43.4 µM | – | 91% | 63% | 59%
Cc1cc(C)c(/C=C2\C(=O)Nc3cccc(-c4cncnc4)c32)[nH]1 | 39.7 µM | 16.3 µM | 16.8 µM | – | – | – | 198% | 44% | 43%
CCN(CC)CCNC(=O)c1c(C)[nH]c(/C=C2\C(=O)Nc3ccc(-c4csc(-c5ccc(O)cc5)n4)cc32)c1C | 0.7 µM | 3.06 µM | 1.38 µM | 1.85 µM | 6.99 µM | 0.5 µM | 47% | 79% | 88%
CCN(CC)CCNC(=O)c1c(C)[nH]c(/C=C2\C(=O)Nc3ccc(-c4ccc(-c5ccccc5)o4)cc32)c1C | 3.09 µM | 4.3 µM | 3.66 µM | 1.41 µM | 8.25 µM | 0.25 µM | 144% | 19% | 64%
Cc1cc(C)c(/C=C2\C(=O)Nc3ccc(-c4csc(C5CCCNC5)n4)cc32)[nH]1 (configuration not stated) | 1.58 µM | 1.34 µM | 1.64 µM | 0.48 µM | 1.7 µM | 0.05 µM | 69% | 6% | 34%
CCN(CC)CCNC(=O)c1c(C)[nH]c(/C=C2\C(=O)Nc3cc(-c4oc(-c5ccccc5)nc4C)ccc32)c1C | 3.55 µM | 7.49 µM | 2.97 µM | 8.09 µM | – | 1.65 µM | 151% | 4% | 43%
CCN(CC)CCNC(=O)c1c(C)[nH]c(/C=C2\C(=O)Nc3ccc(-c4n[nH]c5ccccc45)cc32)c1C | 2.85 µM | 3.02 µM | 4.31 µM | 10.2 µM | 5.65 µM | 1.31 µM | 22% | 4% | 26%
CCN(CC)CCNC(=O)c1c(C)[nH]c(/C=C2\C(=O)Nc3ccc(-c4ccc(-c5cccs5)s4)cc32)c1C | 2.51 µM | – | – | 0.83 µM | – | – | 21% | 5% | 41%
Cc1nc(-c2ccccc2)oc1-c1ccc2c(c1)NC(=O)/C2=C\c1[nH]c(C)c(C(=O)N2CCN(C)CC2)c1C | – | – | – | 1.6 µM | – | 0.5 µM | 103% | 2% | 21%
Cc1cc(C)c(/C=C2\C(=O)Nc3c2cccc3-c2cncnc2)[nH]1 | 28.1 µM | 25.2 µM | 26.9 µM | – | – | – | 113% | 51% | 50%
COc1ncc(-c2cccc3c2/C(=C/c2[nH]c(C)cc2C)C(=O)N3)cn1 | 35.3 µM | 21.1 µM | 28.1 µM | – | – | – | 145% | 77% | 75%
Cc1[nH]c(/C=C2\C(=O)Nc3cc(-c4ccc(-c5ccccc5)s4)ccc32)c(C)c1C(=O)N1CCN(C)CC1 | – | – | – | – | – | – | 108% | 36% | 68%
Cc1cncc(-c2cccc3c2NC(=O)/C3=C\c2[nH]c(C)cc2C)c1 | 26.4 µM | 21.2 µM | 16 µM | – | 32 µM | 32 µM | 103% | 74% | 75%
COc1ncc(-c2cccc3c2NC(=O)/C3=C\c2[nH]c(C)cc2C)cn1 | 20.8 µM | 17.7 µM | 21.9 µM | – | 34.7 µM | 17.5 µM | 96% | 57% | 54%
CCN(CC)CCNC(=O)c1c(C)[nH]c(/C=C2\C(=O)Nc3ccc(-c4nc(-c5ccccc5)cs4)cc32)c1C | 1.18 µM | 4.74 µM | 1.64 µM | 0.27 µM | 4.28 µM | – | 12% | 21% | 64%
CCN(CC)CCNC(=O)c1c(C)[nH]c(/C=C2\C(=O)Nc3cc(-c4ccc(-c5ccccc5)s4)ccc32)c1C | – | – | – | 30.5 µM | – | – | 150% | 5% | 56%
